This is an account of results in patent US9662372B2 (priority 2013, dated 2017).

One experiment has as its system C. difficile ATCC 9689. Kind of experiment: Bacterial mass in wells of PM panels (OD 750 nm). Type of experiment: cell-based, Clostridium difficile. The settings on record: OD difference with vs without C. difficile, 72 h; carbon source (PM01/PM02).
Regarding 2,3-Butanone, the “C. difficile Mass” value is 0.0572 OD (750 nm).

With `OC[C@H]1O[C@@H](Oc2ccc(O)cc2)[C@H](O)[C@@H](O)[C@@H]1O` [Arbutin], the “C. difficile Mass” value is on record as 0.128 OD (750 nm).

For `O=C(O)CC(Br)C(=O)O` (centres unmarked) [Bromosuccinic Acid], the “C. difficile Mass” value is listed as 0.0335 OD (750 nm).

For the compound `CCCCCCCCCC(=O)O` [Capric acid], the “C. difficile Mass” value is on record as 0.014 OD (750 nm).

In the case of `CCCCCC(=O)O` [Caproic acid], the “C. difficile Mass” value is given as 0.0568 OD (750 nm).

Take `C[C@@H](N)C(=O)O` [D-Alanine]: the “C. difficile Mass” value is on record as 0.1233 OD (750 nm).

For `N[C@H](CC(=O)O)C(=O)O` [D-Aspartic acid], the “C. difficile Mass” value is reported as 0.0269 OD (750 nm).

With `O=C(CO)[C@@H](O)[C@H](O)[C@H](O)CO` [D-Fructose], the “C. difficile Mass” value is on record as 0.1435 OD (750 nm).

On to `O=C[C@@H](O)[C@@H](O)[C@H](O)CO` [D-Lyxose], for which the “C. difficile Mass” value is 0.1508 OD (750 nm).

For `N[C@H](CO)C(=O)O` [D-Serine], the “C. difficile Mass” value is given as 0.1114 OD (750 nm).

As for `O=C(CO)[C@@H](O)[C@@H](O)[C@H](O)CO` [D-Tagatose], the “C. difficile Mass” value was 0.138 OD (750 nm).

`C[C@H](O)[C@@H](N)C(=O)O` [D-Threonine]: the “C. difficile Mass” value is on record as 0.0923 OD (750 nm).

Take `O=C(O)/C=C/C(=O)O` [Fumaric Acid]: the “C. difficile Mass” value is reported as 0.018 OD (750 nm).

As to `C[C@H](N)C(=O)O` [L-Alanine], the “C. difficile Mass” value was 0.113 OD (750 nm).

As to `N[C@@H](CCO)C(=O)O` [L-Homoserine], the “C. difficile Mass” value is on record as 0.0071 OD (750 nm).

Take `CC(C)C[C@H](N)C(=O)O` [L-Leucine]: the “C. difficile Mass” value was 0.089 OD (750 nm).

In the case of `CSCC[C@H](N)C(=O)O` [L-Methionine], the “C. difficile Mass” value is reported as 0.0818 OD (750 nm).

On to `N[C@@H](Cc1ccccc1)C(=O)O` [L-Phenylalanine], for which the “C. difficile Mass” value is 0.0714 OD (750 nm).

As to `N[C@@H](CO)C(=O)O` [L-Serine], the “C. difficile Mass” value was 0.0635 OD (750 nm).

`C[C@@H](O)[C@H](N)C(=O)O` [L-Threonine]: the “C. difficile Mass” value is listed as 0.0643 OD (750 nm).

As for `CC(C)[C@H](N)C(=O)O` [L-Valine], the “C. difficile Mass” value is 0.0917 OD (750 nm).

Consider `CC(=O)N[C@H]1C(O)O[C@H](CO)[C@@H](O)[C@@H]1O` (stereo partly drawn) [N-Acetyl-D-Glucosamine], for which the “C. difficile Mass” value is recorded as 0.0955 OD (750 nm).

As for `CC(=O)N[C@H]1[C@H]([C@H](O)[C@H](O)CO)OC(O)(C(=O)O)C[C@@H]1O` (some centres unmarked) [N-Acetyl-Neuraminic acid], the “C. difficile Mass” value is 0.1163 OD (750 nm).

As for `CC(=O)C(=O)O` [Pyruvic Acid], the “C. difficile Mass” value was 0.093 OD (750 nm).

Consider `OCc1ccccc1O[C@@H]1O[C@H](CO)[C@@H](O)[C@H](O)[C@H]1O` [Salicin], for which the “C. difficile Mass” value is reported as 0.1291 OD (750 nm).

On to `NCCc1ccccc1` [β-Phenylethylamine], for which the “C. difficile Mass” value is listed as 0.0477 OD (750 nm).

In the case of Dextrin, the “C. difficile Mass” value is given as 0.0478 OD (750 nm).

Staying with this experiment, now noted: OD difference with vs without C. difficile, 72 h; nitrogen source (PM03/06/07/08).
Take `CC(O)C(N)=O` (racemic) [D,L-Lactamide]: the “C. difficile Mass” value is 0.04 OD (750 nm).

For `CCCCCCC(N)C(=O)O` (racemic) [D,L-α-Amino-Caprylic acid], the “C. difficile Mass” value was 0.0484 OD (750 nm).

Consider `CC(N)=O` [Acetamide], for which the “C. difficile Mass” value was 0.0458 OD (750 nm).

On to `Nc1ncnc2c1ncn2[C@@H]1O[C@H](CO)[C@@H](O)[C@H]1O` [Adenosine], for which the “C. difficile Mass” value was 0.0472 OD (750 nm).

As to `N=C(N)NCCCCN` [Agmatine], the “C. difficile Mass” value is given as 0.043 OD (750 nm).

As for `NC(=O)NC1NC(=O)NC1=O` (centres unmarked) [Allantoin], the “C. difficile Mass” value is 0.0425 OD (750 nm).

As to `NC(=O)NC(N)=O` [Biuret], the “C. difficile Mass” value is given as 0.0394 OD (750 nm).

Turning to `Nc1ccn([C@@H]2O[C@H](CO)[C@@H](O)[C@H]2O)c(=O)n1` [Cytidine], the “C. difficile Mass” value is given as 0.0456 OD (750 nm).

For `Nc1cc[nH]c(=O)n1` [Cytosine], the “C. difficile Mass” value was 0.0361 OD (750 nm).

With `C[C@@H](N)C(=O)O` [D-Alanine], the “C. difficile Mass” value is on record as 0.038 OD (750 nm).

For the compound `NC(=O)C[C@@H](N)C(=O)O` [D-Asparagine], the “C. difficile Mass” value is given as 0.0321 OD (750 nm).

`N[C@H](CC(=O)O)C(=O)O` [D-Aspartic acid]: the “C. difficile Mass” value is listed as 0.0109 OD (750 nm).

Regarding `N[C@H]1C(O)O[C@H](CO)[C@H](O)[C@@H]1O` (stereo partly drawn) [D-Galactosamine], the “C. difficile Mass” value is 0.0374 OD (750 nm).

With `N[C@H]1C(O)O[C@H](CO)[C@@H](O)[C@@H]1O` (stereo partly drawn) [D-Glucosamine], the “C. difficile Mass” value is 0.0447 OD (750 nm).

On to `NCCCC[C@@H](N)C(=O)O` [D-Lysine], for which the “C. difficile Mass” value was 0.0489 OD (750 nm).

As for `N[C@@H]1C(O)O[C@H](CO)[C@@H](O)[C@@H]1O` (stereo partly drawn) [D-Mannosamine], the “C. difficile Mass” value is given as 0.0364 OD (750 nm).

For the compound `N[C@H](CO)C(=O)O` [D-Serine], the “C. difficile Mass” value was 0.0465 OD (750 nm).

As to `CCN` [Ethylamine], the “C. difficile Mass” value is 0.0401 OD (750 nm).

For `NCCN` [Ethylenediamine], the “C. difficile Mass” value is 0.0369 OD (750 nm).

`NC=O` [Formamide]: the “C. difficile Mass” value was 0.0418 OD (750 nm).

Regarding `NC(=O)[C@@H](O)[C@@H](O)[C@H](O)[C@@H](O)C=O` [Glucuronamide], the “C. difficile Mass” value is listed as 0.0369 OD (750 nm).

Regarding `Nc1nc2c(ncn2[C@@H]2O[C@H](CO)[C@@H](O)[C@H]2O)c(=O)[nH]1` [Guanosine], the “C. difficile Mass” value is 0.0092 OD (750 nm).

For `NCCc1c[nH]cn1` [Histamine], the “C. difficile Mass” value is 0.0424 OD (750 nm).

As for `N=C(N)NCCC[C@H](N)C(=O)O` [L-Arginine], the “C. difficile Mass” value was 0.046 OD (750 nm).

As for `NC(=O)NCCC[C@H](N)C(=O)O` [L-Citrulline], the “C. difficile Mass” value is 0.0377 OD (750 nm).

Turning to `N[C@@H](CS)C(=O)O` [L-Cysteine], the “C. difficile Mass” value is given as 0.0394 OD (750 nm).

For `NC(=O)CC[C@H](N)C(=O)O` [L-Glutamine], the “C. difficile Mass” value was 0.0339 OD (750 nm).

Take `N[C@@H](Cc1c[nH]cn1)C(=O)O` [L-Histidine]: the “C. difficile Mass” value was 0.0361 OD (750 nm).

`N[C@@H](CCO)C(=O)O` [L-Homoserine]: the “C. difficile Mass” value was 0.0293 OD (750 nm).

On to `CC[C@H](C)[C@H](N)C(=O)O` [L-Isoleucine], for which the “C. difficile Mass” value was 0.0563 OD (750 nm).

Regarding `NCCCC[C@H](N)C(=O)O` [L-Lysine], the “C. difficile Mass” value was 0.0436 OD (750 nm).

As to `NCCC[C@H](N)C(=O)O` [L-Ornithine], the “C. difficile Mass” value is recorded as 0.0369 OD (750 nm).

`N[C@@H](Cc1c[nH]c2ccccc12)C(=O)O` [L-Tryptophan]: the “C. difficile Mass” value is on record as 0.0299 OD (750 nm).

On to `N[C@@H](Cc1ccc(O)cc1)C(=O)O` [L-Tyrosine], for which the “C. difficile Mass” value is reported as 0.1528 OD (750 nm).

For `CC(C)[C@H](N)C(=O)O` [L-Valine], the “C. difficile Mass” value was 0.0431 OD (750 nm).

Regarding `CN` [Methylamine], the “C. difficile Mass” value is reported as 0.0398 OD (750 nm).

For the compound `CC(=O)N[C@H]1C(O)O[C@H](CO)[C@H](O)[C@@H]1O` (stereo partly drawn) [N-Acetyl-D-Galactosamine], the “C. difficile Mass” value is recorded as 0.0355 OD (750 nm).

As for `CCCCCN` [N-Amylamine], the “C. difficile Mass” value is reported as 0.0433 OD (750 nm).

On to `NCCCCN` [Putrescine], for which the “C. difficile Mass” value was 0.0339 OD (750 nm).

Take `Cc1cn([C@H]2C[C@H](O)[C@@H](CO)O2)c(=O)[nH]c1=O` [Thymidine]: the “C. difficile Mass” value is listed as 0.0384 OD (750 nm).

Regarding `Cc1c[nH]c(=O)[nH]c1=O` [Thymine], the “C. difficile Mass” value is reported as 0.0338 OD (750 nm).

For `NCCc1ccc(O)cc1` [Tyramine], the “C. difficile Mass” value was 0.0442 OD (750 nm).

With `O=c1cc[nH]c(=O)[nH]1` [Uracil], the “C. difficile Mass” value was 0.0375 OD (750 nm).

As to `O=c1[nH]c(=O)c2[nH]c(=O)[nH]c2[nH]1` [Uric acid], the “C. difficile Mass” value is reported as 0.0556 OD (750 nm).

As to `O=c1ccn([C@@H]2O[C@H](CO)[C@@H](O)[C@H]2O)c(=O)[nH]1` [Uridine], the “C. difficile Mass” value is 0.0373 OD (750 nm).

For the compound `O=c1[nH]c(=O)c2[nH]cnc2[nH]1` [Xanthine], the “C. difficile Mass” value was 0.2978 OD (750 nm).

In the case of `O=c1[nH]c(=O)c2ncn([C@@H]3O[C@H](CO)[C@@H](O)[C@H]3O)c2[nH]1` [Xanthosine], the “C. difficile Mass” value is listed as 0.0516 OD (750 nm).

On to `NCCc1ccccc1` [β-Phenylethylamine], for which the “C. difficile Mass” value is 0.0448 OD (750 nm).

As for `NCCCC(=O)O` [γ-Aminobutyric acid], the “C. difficile Mass” value is 0.0375 OD (750 nm).

Staying with this experiment, now noted: OD difference with vs without C. difficile, 72 h; nutritional stimulant panel PM05.
In the case of `Nc1ncnc2c1ncn2[C@@H]1O[C@H](CO)[C@@H](O)[C@H]1O` [Adenosine], the “C. difficile Mass” value was 0.0414 OD (750 nm).

The same experiment, now with this note: OD difference with vs without C. difficile, 72 h; phosphorus/sulfur source panel PM04.
`O=S(=O)(O)CCO` [2-Hydroxyethane Sulfonic acid]: the “C. difficile Mass” value is 0.0428 OD (750 nm).

Take `Nc1ncnc2c1ncn2[C@@H]1O[C@H](COP(=O)(O)O)[C@@H](O)[C@H]1O` [Adenosine 5′-Monophosphate]: the “C. difficile Mass” value is on record as 0.0495 OD (750 nm).

Regarding `CCCCS(=O)(=O)O` [Butane Sulfonic acid], the “C. difficile Mass” value is listed as 0.0398 OD (750 nm).

`NCCS(=O)O` [Hypotaurine]: the “C. difficile Mass” value is recorded as 0.0438 OD (750 nm).

For `NCCS(=O)(=O)O` [Taurine], the “C. difficile Mass” value was 0.0505 OD (750 nm).

In the case of `C[C@H](CCC(=O)NCCS(=O)(=O)O)[C@H]1CC[C@H]2[C@@H]3[C@H](O)C[C@@H]4C[C@H](O)CC[C@]4(C)[C@H]3C[C@H](O)[C@]12C` [Taurocholic acid], the “C. difficile Mass” value is given as 0.0536 OD (750 nm).

As to `O=S1(=O)CCCC1` [Tetramethylene Sulfone], the “C. difficile Mass” value is recorded as 0.0442 OD (750 nm).

Take `Nc1ccc(S(=O)(=O)O)cc1` [p-Aminobenzene Sulfonic acid]: the “C. difficile Mass” value was 0.0485 OD (750 nm).

For another experiment, the system named is C. difficile ATCC 9689.
Test: not given
The class given is cell-based, Clostridium difficile.
Conditions: not given
For the compound 2,3-Butanone, the “Toxin” value is below 0.122 ng/mL.

For `CC(O)C(N)=O` (racemic) [D,L-Lactamide], the “Toxin” value worked out at 2859 ng/mL.

`O=C[C@H](O)[C@@H](O)[C@H](O)[C@H](O)CO` [D-glucose]: the “Average dye reduction rate of CHO-k1 in the presence of C. difficile supernatant” value was determined as 57.19 and the “Corrected dye reduction rate” value stood at 54.6.
